Source: ChEMBL document CHEMBL1201862, “PubChem BioAssay data set” (2004)
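Following 48 hours of exposure in 96-well plates, responses at five concentrations were used to interpolate endpoints linearly. GI50 = concentration required for 50% inhibition of growth.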 The source made the active and inactive calls. Rule as the data show it: active = GI50 up to about 1.1 µM and inactive = higher.

Experiments:
Assay in all cases: DTP human tumour cell line panel, 48 h
EKVX = test system: EKVX
HCT-15 = test system: HCT-15
NCI/ADR-RES = test system: NCI/ADR-RES
SK-MEL-2 = test system: SK-MEL-2
UO-31 = test system: UO-31
A549 = test system: A549
UACC-257 = test system: UACC-257
SF-268 = test system: SF-268
SNB-19 = test system: SNB-19
HL-60 = test system: HL-60
OVCAR-8 = test system: OVCAR-8
UACC-62 = test system: UACC-62
RPMI-8226 = test system: RPMI-8226
SR = test system: SR
OVCAR-5 = test system: OVCAR-5
NCI-H23 = test system: NCI-H23
SW-620 = test system: SW-620
DLD-1 = test system: DLD-1
M19-MEL = test system: M19-MEL
CAKI-1 = test system: CAKI-1
SN12C = test system: SN12C
MOLT-4 = test system: MOLT-4
OVCAR-4 = test system: OVCAR-4
SK-OV-3 = test system: SK-OV-3
MCF7 = test system: MCF7
KM-20L2 = test system: KM-20L2
HCT-116 = test system: HCT-116
SK-MEL-5 = test system: SK-MEL-5
DMS-114 = test system: DMS-114
DMS-273 = test system: DMS-273
SF-295 = test system: SF-295
K562 = test system: K562
NCI-H460 = test system: NCI-H460
IGROV-1 = test system: IGROV-1
HCC 2998 = test system: HCC 2998
CCRF-CEM = test system: CCRF-CEM
KM12 = test system: KM12
SF-539 = test system: SF-539
U-251 = test system: U-251
Malme-3M = test system: Malme-3M
NCI-H522 = test system: NCI-H522
SK-MEL-28 = test system: SK-MEL-28
OVCAR-3 = test system: OVCAR-3
RXF 393 = test system: RXF 393
HT-29 = test system: HT-29
MDA-N = test system: MDA-N
BT-549 = test system: BT-549
TK-10 = test system: TK-10
Hs-578T = test system: Hs-578T
HOP-62 = test system: HOP-62
T47D = test system: T47D
786-0 = test system: 786-0
M14 = test system: M14
PC-3 = test system: PC-3
COLO 205 = test system: COLO 205
ACHN = test system: ACHN
HOP-92 = test system: HOP-92
A498 = test system: A498
NCI-H226 = test system: NCI-H226
DU-145 = test system: DU-145
SNB-75 = test system: SNB-75
MDA-MB-231 = test system: MDA-MB-231
LOX IMVI = test system: LOX IMVI
MDA-MB-435 = test system: MDA-MB-435

CC[C@H]1CN2CCc3cc(OC)c(OC)cc3[C@@H]2C[C@@H]1C[C@H]1NCCc2cc(O)c(OC)cc21
GI50 (EKVX): 25 nM (active) | GI50 (HCT-15): 49.1 nM | GI50 (NCI/ADR-RES): 543 nM (active) | GI50 (SK-MEL-2): 31.9 nM (active) | GI50 (UO-31): 146 nM (active) | GI50 (A549): 25 nM (active) | GI50 (UACC-257): 73.1 nM (active) | GI50 (SF-268): 55.7 nM (active) | GI50 (SNB-19): 25 nM (active) | GI50 (HL-60): 25 nM (active) | GI50 (OVCAR-8): 25 nM (active) | GI50 (UACC-62): 47.8 nM (active) | GI50 (RPMI-8226): 146 nM (active) | GI50 (SR): < 10 nM (active) | GI50 (OVCAR-5): 250 nM (active) | GI50 (NCI-H23): 26.1 nM (active) | GI50 (SW-620): 25 nM (active) | GI50 (DLD-1): 27.7 nM (active) | GI50 (M19-MEL): 25.3 nM (active) | GI50 (CAKI-1): 25 nM (active) | GI50 (SN12C): 36.1 nM (active) | GI50 (MOLT-4): 50.2 nM (active) | GI50 (OVCAR-4): 25 nM (active) | GI50 (SK-OV-3): 56.2 nM (active) | GI50 (MCF7): 25 nM (active) | GI50 (KM-20L2): 25 nM (active) | GI50 (HCT-116): 25 nM (active) | GI50 (SK-MEL-5): 59.2 nM (active) | GI50 (DMS-114): 25 nM (active) | GI50 (DMS-273): 34.4 nM (active) | GI50 (SF-295): 32.6 nM (active) | GI50 (K562): 25 nM (active) | GI50 (NCI-H460): 28.2 nM (active) | GI50 (IGROV-1): 38.5 nM (active) | GI50 (HCC 2998): 26.1 nM (active) | GI50 (CCRF-CEM): 25 nM (active) | GI50 (KM12): 29.6 nM (active) | GI50 (SF-539): 30.8 nM (active) | GI50 (U-251): 33.3 nM (active) | GI50 (Malme-3M): 80.9 nM (active) | GI50 (NCI-H522): 25 nM (active) | GI50 (SK-MEL-28): 41 nM (active) | GI50 (OVCAR-3): 37.7 nM (active) | GI50 (RXF 393): 35.4 nM (active) | GI50 (HT-29): 31.9 nM (active)

COc1ccc(C(=C2C(=O)N(c3ccccc3)C(=O)C2=C(C)C)c2ccc(OC)cc2)cc1
GI50 (MDA-N): 1700 nM (inactive) | GI50 (EKVX): 2940 nM (inactive) | GI50 (HCT-15): 2920 nM | GI50 (NCI/ADR-RES): 2570 nM (inactive) | GI50 (BT-549): 12400 nM (inactive) | GI50 (SK-MEL-2): 3970 nM (inactive) | GI50 (UO-31): 2750 nM (inactive) | GI50 (A549): 5210 nM (inactive) | GI50 (TK-10): 14000 nM (inactive) | GI50 (UACC-257): 5050 nM (inactive) | GI50 (SF-268): 9950 nM (inactive) | GI50 (Hs-578T): 3690 nM (inactive) | GI50 (SNB-19): 4070 nM (inactive) | GI50 (HL-60): 998 nM (active) | GI50 (OVCAR-8): 8410 nM (inactive) | GI50 (UACC-62): 3410 nM (inactive) | GI50 (RPMI-8226): 4100 nM (inactive) | GI50 (HOP-62): 9020 nM (inactive) | GI50 (SR): 1090 nM (active) | GI50 (OVCAR-5): 8690 nM (inactive) | GI50 (NCI-H23): > 28000 nM (inactive) | GI50 (SW-620): 3190 nM (inactive) | GI50 (T47D): 3270 nM (inactive) | GI50 (CAKI-1): 3660 nM (inactive) | GI50 (SN12C): 4020 nM (inactive) | GI50 (786-0): 3430 nM (inactive) | GI50 (MOLT-4): 2540 nM (inactive) | GI50 (OVCAR-4): 3230 nM (inactive) | GI50 (M14): 2400 nM (inactive) | GI50 (SK-OV-3): 4790 nM (inactive) | GI50 (PC-3): 4330 nM (inactive) | GI50 (MCF7): 3440 nM (inactive) | GI50 (COLO 205): 2960 nM (inactive) | GI50 (HCT-116): 3720 nM (inactive) | GI50 (SK-MEL-5): 4610 nM (inactive) | GI50 (ACHN): 4690 nM (inactive) | GI50 (HOP-92): 10300 nM (inactive) | GI50 (SF-295): 3170 nM (inactive) | GI50 (K562): 3270 nM (inactive) | GI50 (NCI-H460): 4220 nM (inactive) | GI50 (IGROV-1): 3440 nM (inactive) | GI50 (HCC 2998): 5500 nM (inactive) | GI50 (CCRF-CEM): 546 nM (active) | GI50 (A498): 2940 nM (inactive) | GI50 (NCI-H226): 4560 nM (inactive) | GI50 (KM12): 3530 nM (inactive) | GI50 (SF-539): 2990 nM (inactive) | GI50 (DU-145): 6140 nM (inactive) | GI50 (SNB-75): 2870 nM (inactive) | GI50 (U-251): 3370 nM (inactive) | GI50 (MDA-MB-231): 5090 nM (inactive) | GI50 (Malme-3M): 6750 nM (inactive) | GI50 (LOX IMVI): 3720 nM (inactive) | GI50 (NCI-H522): 1500 nM (inactive) | GI50 (SK-MEL-28): 3090 nM (inactive) | GI50 (OVCAR-3): 3560 nM (inactive) | GI50 (MDA-MB-435): 1450 nM (inactive) | GI50 (RXF 393): 2090 nM (inactive) | GI50 (HT-29): 2430 nM (inactive)
